{"source": "patent US7078065B2", "about": "“Composition containing asiasari radix extracts for protecting brain cells and improving memory” (priority 2001, dated 2006)", "key": {"C6 glial cells": {"tested_on": "C6 glial cells", "test": "Cell viability (MTT) assay, AMPA-induced damage in C6 glial cells", "format": "cell-based", "experimental": "(§1) MTT assay is a method to measure mitochondrial redox with calorimeter and it is primarily used to know mitochondrial redox potential or cell viability (Mosmann T., J Immunol. Methods, 1983). PC 12 cells and C6 glial cells were grown in DMEM media with 10% fetal calf serum in 5% humidified CO2 atmosphere at 37° C. PC12 cells were induced to differentiation into neuronal cells by the addition of nerve growth factor (100 ng/ml). Fresh NGF was added every 48 h and experiments were conducted after NGF treatment for 7 days.\n(§2) The cells were plated in 96 well plates at a density of 1×10^5 cells/well. Cells were preincubated with AMPA (40 μM) and followed by the addition of AR fractions (10 μg/ml) for 24 hrs. MTT reagent (Sigma, USA) (5 mg/ml) was made in PBS (phosphate buffered saline) and filtered. The cells were then treated with MTT (final concentration, 0.5 mg/ml) and allowed to incubate for 3 hrs at 37° C. Cells containing active mitochondria form dark blue formazan by disintegrating tetrazolium ring. The culture media were removed and the cells were subjected to lysis in the presence of […] of DMSO and […] of Sorensen glycine buffer (0.1M glycine, 0.1M NaCl, pH 10.5). The absorbance was measured with spectrophotometer at 570 nm. The ratio of absorbance of experimental groups to control groups is expressed as % cell viability."}, "[1]": {"tested_on": "differentiated PC12 cells", "test": "Cell viability (MTT) assay, AMPA-induced damage in differentiated PC12 cells", "format": "cell-based", "details": "AMPA 40 uM", "experimental": "as §1, §2"}, "[2]": {"tested_on": "AMPA-induced depolarization in rat cortical slices", "test": "Grease-gap recording assay: AMPA-induced depolarization in rat cortical wedges", "details": "AMPA 40 uM for 2 min", "experimental": "Cortical wedges from rats were prepared, placed in two-compartment brain bath and experiments were performed as described by Harrison and Simmonds (British J. Pharmacol. 84, 381–391, 1985). ‘Wedges’ of rat cerebral cortex were prepared from the brains of male Wistar rats (200 g). The animal is decapitated and the brain rapidly removed into chilled oxygenated (95% O2/5% CO2) artificial cerebrospinal fluid (ACSF) containing (mM): NaCl 122, NaHCO3 25, KCl 3.1, KH2PO4 0.4, CaCl2 1.3, MgSO4 1.4, D-glucose 10, (pH 7.4). […] coronal slices were taken and they were then placed in room temperature oxygenated ACSF and hemisected with a razor blade. A wedge of tissue was formed such that the dorsal cortical surface containing cerebral cortex and corpus callosum was approximately 1.5 mm wide and ventral surface was approximately 1 mm wide. The wedges were further incubated in ACSF for 2 hrs at room temperature.\nCortical wedges were placed in a two-compartment bath and a greased (high vacuum silicon grease) barrier placed such that a high-resistance seal was formed between the two compartments. Oxygenated ACSF was perfused through the two compartments separately at 2 ml/min for at least 1 hr. […] The DC potential between the two compartments was monitored via Ag/AgCl electrodes. The signal was amplified and analyzed with the aid of McLab software."}}}
{"smiles": "Cc1o[nH]c(=O)c1CC(N)C(=O)O", "note": "(stereo not drawn) [AMPA]", "values": [{"measurement": "reduction in cell viability as compared to control", "setting": "C6 glial cells", "result": "approximately 35%"}, {"measurement": "reduction in cell viability as compared to control", "setting": "[1]", "result": "approximately 50%"}, {"measurement": "increase in depolarization", "setting": "[2]", "result": "up to 0.79 mV"}]}
